Assay results taken from US20150166664A1, “NOVEL THERAPEUTIC TREATMENTS WITH ANTI-HER2 ANTIBODIES HAVING A LOW FUCOSYLATION” (Glycotope GmbH, priority 2012, published 2015).

Tests used:
[1] = Prevention of infusion related reactions by pre-medication; format: in vivo, human; details: pretreatment with paracetamol 1000 mg evening before and 1 h before, optionally methylprednisolone 125 mg 30 min before
Protocol: Without the use of steroids, IRRs occurred in all but one patient, at least once (grade 1 to 3). Therefore, it is recommended to use a pre-medication comprising and preferably consisting of steroids and paracetamol and to restrict the respective pre-medication to the first infusion and the single next infusion following an IRR. Preferably, paracetamol is given on the evening before and one hour before the infusion with the reduced […] anti-HER2 antibody. Steroids (for example 125 mg methylprednisolone) preferably will be administered 30 minutes before the infusion to the patient.

SK-BR-3 cells = assay: MTT proliferation assay; format: cell-based, human; details: 20 nM, 4 days, positive control
Protocol: MTT assay is a non-radioactive assay based on the cleavage of the soluble yellow tetrazolium salt MTT (3-[4,5-Dimethylthiazol-2-yl]-2,5-diphenyltetrazolium bromide; Thiazolyl Blue) by mitochondrial dehydrogenases of viable cells. […] The absorption signal is a direct measure of viable cells in the culture.
Briefly, SK-BR-3 cells were grown for 2 days in 96-well flat bottom plates. […] Supernatant was completely removed and MTT was added. Cells were incubated for 2 hours with MTT at 37° C. in a humidified CO2 incubator. The supernatant was removed and cells were lysed using HCl and 2-propanol containing lysis buffer for 1 h at room temperature in the dark. Absorption at 570 nm/630 nm was measured in a plate reader Infinite F200 (Tecan Austria GmbH).

[2] = system: incurable, locally advanced, recurrent or metastatic solid tumors; details: i.v. every 3 weeks, cited from earlier work

CC(=O)Nc1ccc(O)cc1 [paracetamol, N-(4-hydroxyphenyl)acetamide]
patients who did not show any IRR upon Fuc− trastuzumab infusion [1]: ~50%

CC(=O)O[C@H]1C(=O)[C@@]2(C)[C@H]([C@H](OC(=O)c3ccccc3)[C@]3(O)C[C@H](OC(=O)[C@H](O)[C@@H](NC(=O)c4ccccc4)c4ccccc4)C(C)=C1C3(C)C)[C@]1(OC(C)=O)CO[C@@H]1C[C@@H]2O [Taxol, paclitaxel]
proliferation compared to the medium control (SK-BR-3 cells): 6%

pertuzumab: anti-HER2 antibody, HER dimerisation inhibitor
confirmed partial responses [2]: 2 Patients | tumor regression ([2]; patients evaluable for response): 3 of 20
